Patent US20240174662A1, “SMALL MOLECULE INHIBITORS OF SALT INDUCIBLE KINASES” (Janssen Biotech, Inc., priority 2021, published 2024)

The compounds below were run against SIK2 (Homo sapiens (Human), UniProt Q9H0K1) (assay: SIK2 Enzymatic Assay Version 2 (High ATP)). Settings: 3 mM ATP and 200 μM HDAC5tide final, ADP-Glo Max luminescence.
Assay type: biochemical
Summary of the method: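 Luminescent ADP-Glo Max read-out: depletion reagent 2 h, then detection reagent 1 h. Before the reaction, compounds were incubated 30 min with enzyme added at 6 nM (twice final concentration), with all steps at room temperature.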

SIK2, sequence (Q9H0K1 whole entry, species assumed): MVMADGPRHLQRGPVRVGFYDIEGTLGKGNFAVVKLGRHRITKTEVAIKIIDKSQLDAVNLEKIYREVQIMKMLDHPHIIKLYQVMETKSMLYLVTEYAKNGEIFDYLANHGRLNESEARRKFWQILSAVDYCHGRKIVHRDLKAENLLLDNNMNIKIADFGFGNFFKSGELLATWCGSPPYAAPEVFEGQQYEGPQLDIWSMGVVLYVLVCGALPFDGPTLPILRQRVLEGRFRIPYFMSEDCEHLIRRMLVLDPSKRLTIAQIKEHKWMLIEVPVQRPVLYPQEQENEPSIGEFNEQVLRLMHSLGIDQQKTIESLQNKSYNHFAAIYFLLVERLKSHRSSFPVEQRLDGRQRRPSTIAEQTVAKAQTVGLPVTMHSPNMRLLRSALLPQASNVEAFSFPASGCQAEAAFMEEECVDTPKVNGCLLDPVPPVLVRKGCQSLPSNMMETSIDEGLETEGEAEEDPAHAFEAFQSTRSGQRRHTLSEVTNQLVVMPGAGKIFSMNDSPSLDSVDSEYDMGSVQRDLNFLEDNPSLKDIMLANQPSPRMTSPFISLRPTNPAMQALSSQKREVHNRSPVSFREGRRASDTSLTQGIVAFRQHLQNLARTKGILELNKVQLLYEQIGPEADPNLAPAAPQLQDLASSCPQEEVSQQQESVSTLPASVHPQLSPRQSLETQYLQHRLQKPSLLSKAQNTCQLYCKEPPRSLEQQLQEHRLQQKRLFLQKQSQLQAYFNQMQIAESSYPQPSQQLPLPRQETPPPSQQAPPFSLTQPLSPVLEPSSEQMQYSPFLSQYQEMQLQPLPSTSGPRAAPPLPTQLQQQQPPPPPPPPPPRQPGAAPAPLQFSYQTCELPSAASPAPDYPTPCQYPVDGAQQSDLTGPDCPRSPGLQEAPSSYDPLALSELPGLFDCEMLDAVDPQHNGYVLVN

Question: How did the IC50 turn out when Cc1cc(Nc2cc3cc(-c4c(OC[C@](C)(O)C5CC5)cnn4C)ccn3n2)nc(C)n1 (single isomer, unassigned) [Example 304, (*S)-2-cyclopropyl-1-[5-[2-[(2,6-dimethylpyrimidin-4-yl)amino]pyrazolo[1,5-a]pyridin-5-yl]-1-methyl-pyrazol-4-yl]oxy-propan-2-ol] was run?
Answer: 45.7 nM

Question: How did the IC50 turn out when Cc1cc(Nc2cc3cc(-c4c(OC[C@@H]5COC(C)(C)C5)cnn4C)ccn3n2)nc(C)n1 (single isomer, unassigned) [Example 307, (*R)—N-(2,6-dimethylpyrimidin-4-yl)-5-[4-[(5,5-dimethyltetrahydrofuran-3-yl)methoxy]-2-methyl-pyrazol-3-yl]pyrazolo[1,5-a]pyridin-2-amine] was run?
Answer: 30.9 nM

Question: Which IC50 does the source give for C[C@H]1[C@H](COc2cnn(C)c2-c2ccn3nc(NC(=O)C4CC4)cc3c2)CN1C (single isomer, unassigned) [Example 337, (2*S, 3*R)—N-[5-[4-[(1,2-dimethylazetidin-3-yl)methoxy]-2-methyl-pyrazol-3-yl]pyrazolo[1,5-a]pyridin-2-yl]cyclopropanecarboxamide] here?
Answer: 54.4 nM

Question: Cc1cc(Nc2cc3cc(-c4c(O[C@H]5C[C@H]6CC[C@@H]5O6)cnn4C)ccn3n2)nc(C)n1 (single isomer, unassigned) [Example 352, (1*S, 2*S, 4*R)—N-(2,6-dimethylpyrimidin-4-yl)-5-[2-methyl-4-(7-oxabicyclo[2.2.1]heptan-3-yloxy)pyrazol-3-yl]pyrazolo[1,5-a]pyridin-2-amine] was tested. Which IC50 did it give?
Answer: 66.8 nM

Question: Which IC50 does the source give for Cc1cc(Nc2cc3cc(-c4c(OC[C@H](O)C5(C)CC5)cnn4C)ccn3n2)nc(C)n1 (single isomer, unassigned) [Example 356, (1*R)-2-[5-[2-[(2,6-dimethylpyrimidin-4-yl)amino]pyrazolo[1,5-a]pyridin-5-yl]-1-methyl-pyrazol-4-yl]oxy-1-(1-methylcyclopropyl)ethanol] here?
Answer: 59.1 nM

Question: How did the IC50 turn out when Cc1cc(Nc2cc3cc(-c4c(OC[C@@H](O)C5(C)CC5)cnn4C)ccn3n2)nc(C)n1 (single isomer, unassigned) [Example 357, *S-1-methylcyclopropyl-2-[5-[2-[(2,6-dimethylpyrimidin-4-yl)amino]pyrazolo[1,5-a]pyridin-5-yl]-1-methyl-pyrazol-4-yl]oxy-ethanol] was run?
Answer: 61.9 nM

Question: Cc1cc(Nc2cc3cc(-c4c(OC[C@@H]5CC6(CCC6)CO5)cnn4C)ccn3n2)nc(C)n1 (single isomer, unassigned) [Example 358, *S—N-(2,6-dimethylpyrimidin-4-yl)-5-[2-methyl-4-(7-oxaspiro[3.4]octan-6-ylmethoxy)pyrazol-3-yl]pyrazolo[1,5-a]pyridin-2-amine] was tested. Which IC50 did it give?
Answer: 53.5 nM

Question: CO[C@H]1CNC[C@H]1Oc1noc(C)c1-c1ccn2nc(NC(=O)C3CC3)cc2c1 (single isomer, unassigned) [Example 385, (3*R,4*S)—N-[5-[3-(4-methoxypyrrolidin-3-yl)oxy-5-methyl-isoxazol-4-yl]pyrazolo[1,5-a]pyridin-2-yl]cyclopropanecarboxamide] was tested. Which IC50 did it give?
Answer: 124 nM

Question: How did the IC50 turn out when Cn1ncc(OC[C@@H](O)C(F)(F)F)c1-c1ccn2nc(NC(=O)C3CC3)cc2c1 (single isomer, unassigned) [Example 401, (*R)—N-[5-[2-methyl-4-(3,3,3-trifluoro-2-hydroxy-propoxy)pyrazol-3-yl]pyrazolo[1,5-a]pyridin-2-yl]cyclopropanecarboxamide] was run?
Answer: 107 nM

Question: With CO[C@H]1CN(C)C[C@H]1Oc1cnn(C)c1-c1ccn2nc(NC(=O)C3CC3)cc2c1 (single isomer, unassigned) [Example 411, (3*R,4*S)—N-[5-[4-(4-methoxy-1-methyl-pyrrolidin-3-yl)oxy-2-methyl-pyrazol-3-yl]pyrazolo[1,5-a]pyridin-2-yl]cyclopropanecarboxamide] as the compound, how does the IC50 read?
Answer: 86.9 nM

Question: With C[C@H]1CNC[C@H]1Oc1cnn(C)c1-c1ccn2nc(NC(=O)C3CC3)cc2c1 (single isomer, unassigned) [Example 413, (3*S,4*S)—N-[5-[2-methyl-4-(4-methylpyrrolidin-3-yl)oxy-pyrazol-3-yl]pyrazolo[1,5-a]pyridin-2-yl]cyclopropanecarboxamide] as the compound, how does the IC50 read?
Answer: 140 nM

Question: With Cn1ncc(O[C@@H]2CNC[C@H]2O)c1-c1ccn2nc(NC(=O)C3CC3)cc2c1 (single isomer, unassigned) [Example 414, (3*R,4*R)—N-[5-[4-(4-hydroxypyrrolidin-3-yl)oxy-2-methyl-pyrazol-3-yl]pyrazolo[1,5-a]pyridin-2-yl]cyclopropanecarboxamide] as the compound, how does the IC50 read?
Answer: 98.7 nM

Question: How did the IC50 turn out when C[C@@H]1CN(C)C[C@@H]1Oc1cnn(C)c1-c1ccn2nc(NC(=O)C3CC3)cc2c1 (single isomer, unassigned) [Example 418, (3*R,4*R)—N-[5-[4-(1,4-dimethylpyrrolidin-3-yl)oxy-2-methyl-pyrazol-3-yl]pyrazolo[1,5-a]pyridin-2-yl]cyclopropanecarboxamide] was run?
Answer: 102 nM

Question: Cc1cc(Nc2cc3cc(-c4c(OC[C@]5(O)CCOC5)cnn4C)ccn3n2)nc(C)n1 (single isomer, unassigned) [Example 439, (*S)-3-[[5-[2-[(2,6-dimethylpyrimidin-4-yl)amino]pyrazolo[1,5-a]pyridin-5-yl]-1-methyl-pyrazol-4-yl]oxymethyl]tetrahydrofuran-3-ol] was tested. Which IC50 did it give?
Answer: 174 nM

Question: For Cc1cc(Nc2cc3cc(-c4c(OC[C@]5(C)CCOC5)cnn4C)ccn3n2)nc(C)n1 (single isomer, unassigned) [Example 440, (*S)—N-(2,6-dimethylpyrimidin-4-yl)-5-[2-methyl-4-[(3-methyltetrahydrofuran-3-yl)methoxy]pyrazol-3-yl]pyrazolo[1,5-a]pyridin-2-amine], which IC50 is on record?
Answer: 70.1 nM

Question: Cc1cc(Nc2cc3cc(-c4c(O[C@H]5C[C@@H]6CC[C@H]5O6)cnn4C)ccn3n2)nc(C)n1 (single isomer, unassigned) [Example 441, (1*R, 2*S, 4*S)—N-(2,6-dimethylpyrimidin-4-yl)-5-[2-methyl-4-(7-oxabicyclo[2.2.1]heptan-3-yloxy)pyrazol-3-yl]pyrazolo[1,5-a]pyridin-2-amine] was tested. Which IC50 did it give?
Answer: 72.9 nM

Question: For Cc1cc(Nc2cc3cc(-c4c(OC[C@@H]5CC6(CCCC6)CO5)cnn4C)ccn3n2)nc(C)n1 (single isomer, unassigned) [Example 443, (*S)—N-(2,6-dimethylpyrimidin-4-yl)-5-[2-methyl-4-(8-oxaspiro[4.4]nonan-7-ylmethoxy)pyrazol-3-yl]pyrazolo[1,5-a]pyridin-2-amine], which IC50 is on record?
Answer: 74.3 nM

Question: For Cc1cc(Nc2cc3cc(-c4c(OC[C@H](O)C5CCC5)cnn4C)ccn3n2)nc(C)n1 (single isomer, unassigned) [Example 444, (*R)-1-cyclobutyl-2-[5-[2-[(2,6-dimethylpyrimidin-4-yl)amino]pyrazolo[1,5-a]pyridin-5-yl]-1-methyl-pyrazol-4-yl]oxy-ethanol], which IC50 is on record?
Answer: 155 nM

Question: For Cc1cc(Nc2cc3cc(-c4c(O[C@@H]5COC[C@@H]5C)cnn4C)ccn3n2)nc(C)n1 (single isomer, unassigned) [Example 445, (3*S,4*S)—N-(2,6-dimethylpyrimidin-4-yl)-5-[2-methyl-4-(4-methyltetrahydrofuran-3-yl)oxy-pyrazol-3-yl]pyrazolo[1,5-a]pyridin-2-amine], which IC50 is on record?
Answer: 78.9 nM

Question: Cc1cc(Nc2cc3cc(-c4c(OC[C@]5(C)CCCO5)cnn4C)ccn3n2)nc(C)n1 (single isomer, unassigned) [Example 447, (*S)—N-(2,6-dimethylpyrimidin-4-yl)-5-[2-methyl-4-[(2-methyltetrahydrofuran-2-yl)methoxy]pyrazol-3-yl]pyrazolo[1,5-a]pyridin-2-amine] was tested. Which IC50 did it give?
Answer: 69.7 nM

Question: Cc1cc(Nc2cc3cc(-c4c(OC[C@@H]5CC[C@@H]5O)cnn4C)ccn3n2)nc(C)n1 (single isomer, unassigned) [Example 448, (1*S,2*S)-2-[[5-[2-[(2,6-dimethylpyrimidin-4-yl)amino]pyrazolo[1,5-a]pyridin-5-yl]-1-methyl-pyrazol-4-yl]oxymethyl]cyclobutanol] was tested. Which IC50 did it give?
Answer: 115 nM

Question: With Cn1ncc(CO[C@H]2CNCC2(F)F)c1-c1ccn2nc(NC(=O)C3CC3)cc2c1 (single isomer, unassigned) [Example 465, (*S)—N-[5-[4-[(4,4-difluoropyrrolidin-3-yl)oxymethyl]-2-methyl-pyrazol-3-yl]pyrazolo[1,5-a]pyridin-2-yl]cyclopropanecarboxamide] as the compound, how does the IC50 read?
Answer: 74.9 nM

Question: For CN1CC[C@@H]1COc1cnn(C)c1-c1ccn2nc(NC(=O)[C@@H]3C[C@@H]3c3ccccc3)cc2c1 (single isomer, unassigned) [Example 474, (1*R,2*S)—N-(5-(1-methyl-4-(((R)-1-methylazetidin-2-yl)methoxy)-1H-pyrazol-5-yl)pyrazolo[1,5-a]pyridin-2-yl)-2-phenylcyclopropane-1-carboxamide], which IC50 is on record?
Answer: 428 nM

Question: With CO[C@H]1CNC[C@H]1Oc1cnn(C)c1-c1ccn2nc(NC(=O)C3CC3)cc2c1 (stereo in doubt) [Example 5, N-(5-(4-(((3*R,4*S)-4-methoxypyrrolidin-3-yl)oxy)-1-methyl-1H-pyrazol-5-yl)pyrazolo[1,5-a]pyridin-2-yl)cyclopropanecarboxamide] as the compound, how does the IC50 read?
Answer: 10.9 nM

Question: With CO[C@@H]1CNC[C@@H]1Oc1cnn(C)c1-c1ccn2nc(NC(=O)C3CC3)cc2c1 (stereo in doubt) [Example 232, (rac-cis)-N-[5-[4-(4-methoxypyrrolidin-3-yl)oxy-2-methyl-pyrazol-3-yl]pyrazolo[1,5-a]pyridin-2-yl]cyclopropanecarboxamide] as the compound, how does the IC50 read?
Answer: 33.2 nM

Question: How did the IC50 turn out when Cc1cc(Nc2cc3cc(-c4c(OC[C@@H](O)C56CC(C5)C6)cnn4C)ccn3n2)nc(C)n1 (stereo in doubt) [Example 306, (*S)-1-(3-bicyclo[1.1.1]pentanyl)-2-[5-[2-[(2,6-dimethylpyrimidin-4-yl)amino]pyrazolo[1,5-a]pyridin-5-yl]-1-methyl-pyrazol-4-yl]oxy-ethanol] was run?
Answer: 36.1 nM

Question: With Cc1cc(Nc2cc3cc(-c4c(CO[C@H]5CN(C)C[C@H]5C)cnn4C)ccn3n2)nc(C)n1 (stereo in doubt) [Example 368, CIS—*R, *R—N-(2,6-dimethylpyrimidin-4-yl)-5-[4-[(1,4-dimethylpyrrolidin-3-yl)oxymethyl]-2-methyl-pyrazol-3-yl]pyrazolo[1,5-a]pyridin-2-amine] as the compound, how does the IC50 read?
Answer: 3.3 nM
